Measured values as given in ChEMBL document CHEMBL6182930, “Discovery of TBK1Molecular Glue Degraders as a Potential Strategy for the Treatment of Autosomal Dominant Polycystic Kidney Disease (ADPKD)” (J Med Chem, 2025).
Active and inactive are the calls of the source. The rule behind the calls is not given here.

Columns and labels:
Mus musculus [1] = experiment: In vivo molecular glue activity at RNF126/TBK1 in PKD1 knockout ADPKD (Pkd1 flox/flox; Ksp-Cre) C57BL/6 mouse model assessed as decrease in phosphorylated STING level in kidney at 5 mg/kg, SC administered from postnatal day 6 and measured on postnatal day 12 by Western blot analysis; type: functional, organism-based; conditions: time 7.0 day
[2] = Volume of distribution at steady state in rat at 2 mg/kg, iv measured after 24 hrs by LC-MS/MS analysis; type: ADME, organism-based; conditions: in vivo, read-out: Vdss
[3] = molecular target: T1, E3 ubiquitin-protein ligase RNF126/Serine/threonine-protein kinase TBK1 (Homo sapiens, UniProt Q9UHD2+Q9BV68); experiment: Molecular glue activity at RNF126/TBK1 in human A549 cells assessed as induction of TBK1 degradation by measuring maximal efficacy at 10 to 1000 nM incubated for 16 hrs by Western blot analysis relative to control; type: cell-based; conditions: dose 10-1000 nM
Target sequence in this assay (Q9BV68 2-311 partner limits assumed, one chain of several): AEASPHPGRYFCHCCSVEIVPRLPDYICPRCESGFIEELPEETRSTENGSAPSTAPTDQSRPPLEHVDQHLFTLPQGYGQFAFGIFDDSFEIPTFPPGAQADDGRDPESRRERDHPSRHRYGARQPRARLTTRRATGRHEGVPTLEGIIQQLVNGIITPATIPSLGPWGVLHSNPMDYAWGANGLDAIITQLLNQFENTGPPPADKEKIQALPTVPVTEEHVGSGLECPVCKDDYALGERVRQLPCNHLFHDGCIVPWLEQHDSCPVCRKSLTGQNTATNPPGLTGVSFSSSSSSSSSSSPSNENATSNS

MDCK = experiment: Inhibition of cystogenesis in forskolin-stimulated MDCK cells assessed as reduction in cyst growth at 100 nM by imaging analysis; type: functional, cell-based; conditions: Canis lupus familiaris, time 8.0 day
[4] = molecular target: T1, E3 ubiquitin-protein ligase RNF126/Serine/threonine-protein kinase TBK1; experiment: Molecular glue activity at RNF126/TBK1 in human A549 cells assessed as induction of TBK1 degradation at 1 uM measured after 6 hrs by Western blot analysis; type: cell-based
Target sequence in this assay (Q9BV68 2-311 partner limits assumed, one chain of several): as above

[5] = molecular target: T1, E3 ubiquitin-protein ligase RNF126/Serine/threonine-protein kinase TBK1; experiment: Molecular glue activity at RNF126/TBK1 in HEK293T cells assessed as induction of TBK1 degradation at 1 uM pretreated with MG132 for 2 hrs followed by compound addition and measured after 16 hrs by Western blot analysis; type: cell-based
Target sequence in this assay (Q9BV68 2-311 partner limits assumed, one chain of several): as above

[6] = molecular target: T1, E3 ubiquitin-protein ligase RNF126/Serine/threonine-protein kinase TBK1; experiment: Molecular glue activity at RNF126/TBK1 in HEK293T cells assessed as induction of TBK1 degradation incubated for 16 hrs by Western blot analysis; type: cell-based
[7] = Cmax in rat at 2 mg/kg, iv measured after 24 hrs by LC-MS/MS analysis; type: ADME, organism-based; conditions: in vivo
Mus musculus [8] = experiment: Anti-inflammatory activity in PKD1 knockout ADPKD (Pkd1 flox/flox; Ksp-Cre) C57BL/6 mouse model assessed as decrease in TNF-alpha level in kidney at 5 mg/kg, SC administered from postnatal day 6 and measured on postnatal day 12 by RT-qPCR analysis; type: functional, organism-based; conditions: time 7.0 day
[9] = Cmax in rat at 10 mg/kg, po measured after 24 hrs by LC-MS/MS analysis; type: ADME, organism-based; conditions: in vivo
[10] = molecular target: T2, Serine/threonine-protein kinase TBK1 (Homo sapiens, UniProt Q9UHD2); experiment: Inhibition of TBK1-dependent SEAP reporter gene expression in LPS-stimulated human THP1-Blue ISG cells incubated for 24 hrs by QUANTI-Blue reagent based analysis; type: cell-based
T2 sequence (Q9UHD2 whole entry): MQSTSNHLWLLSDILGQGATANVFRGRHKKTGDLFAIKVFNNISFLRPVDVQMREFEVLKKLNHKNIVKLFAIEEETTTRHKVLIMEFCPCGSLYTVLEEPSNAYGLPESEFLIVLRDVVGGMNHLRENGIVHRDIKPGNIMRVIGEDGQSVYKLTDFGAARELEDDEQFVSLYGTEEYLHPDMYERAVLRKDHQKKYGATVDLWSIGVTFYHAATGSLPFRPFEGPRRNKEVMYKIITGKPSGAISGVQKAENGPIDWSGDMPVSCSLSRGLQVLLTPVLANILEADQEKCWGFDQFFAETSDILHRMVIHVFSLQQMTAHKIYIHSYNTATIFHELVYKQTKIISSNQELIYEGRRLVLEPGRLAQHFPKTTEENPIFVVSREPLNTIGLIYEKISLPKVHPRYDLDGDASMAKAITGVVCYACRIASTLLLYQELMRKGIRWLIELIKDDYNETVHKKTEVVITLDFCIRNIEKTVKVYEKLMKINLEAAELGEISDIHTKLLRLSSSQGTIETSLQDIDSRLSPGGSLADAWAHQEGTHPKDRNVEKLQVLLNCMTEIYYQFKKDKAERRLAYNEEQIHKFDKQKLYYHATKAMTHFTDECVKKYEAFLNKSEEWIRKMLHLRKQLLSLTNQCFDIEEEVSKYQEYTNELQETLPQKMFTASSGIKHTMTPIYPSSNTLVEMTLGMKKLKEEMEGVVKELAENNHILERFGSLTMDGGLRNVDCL

Mus musculus [11] = experiment: Inhibition of renal cystogenesis in PKD1 knockout ADPKD (Pkd1 flox/flox; Ksp-Cre) C57BL/6 mouse model assessed as reduction in relative kidney size at 5 mg/kg, SC administered from postnatal day 6 and measured on postnatal day 12; type: functional, organism-based; conditions: time 7.0 day
[12] = Oral bioavailability in rat at 10 mg/kg measured after 24 hrs by LC-MS/MS analysis; type: ADME, organism-based; conditions: in vivo
Kidney = experiment: Ex vivo inhibition of renal cystogenesis in wild type C57BL/6 mouse kidney assessed as suppression of 8-Br-cAMP-induced cyst development at 100 nM treated for 6 days by imaging analysis; type: functional, tissue-based; conditions: time 6.0 day
Mus musculus [13] = experiment: Anti-inflammatory activity in PKD1 knockout ADPKD (Pkd1 flox/flox; Ksp-Cre) C57BL/6 mouse model assessed as decrease in IL-6 level in kidney at 5 mg/kg, SC administered from postnatal day 6 and measured on postnatal day 12 by RT-qPCR analysis; type: functional, organism-based; conditions: time 7.0 day
[14] = Clearance in rat at 2 mg/kg, iv measured after 24 hrs by LC-MS/MS analysis; type: ADME, organism-based; conditions: in vivo
[15] = AUC (0 to infinity) in rat at 10 mg/kg, po measured after 24 hrs by LC-MS/MS analysis; type: ADME, organism-based; conditions: in vivo
[16] = molecular target: T1, E3 ubiquitin-protein ligase RNF126/Serine/threonine-protein kinase TBK1; experiment: Molecular glue activity at RNF126/TBK1 in HEK293T cells assessed as induction of TBK1 degradation at 1 uM measured after 24 hrs by Western blot analysis; type: cell-based
Target sequence in this assay (Q9BV68 2-311 partner limits assumed, one chain of several): as the sequence (Q9BV68 2-311 partner limits assumed, one chain of several) above

Mus musculus [17] = experiment: Inhibition of renal cystogenesis in PKD1 knockout ADPKD (Pkd1 flox/flox; Ksp-Cre) C57BL/6 mouse model assessed as reduction in renal cystic index at 5 mg/kg, SC administered from postnatal day 6 and measured on postnatal day 12 (reference value: 20.0 +/- 1.3 %); type: functional; parameters: scale not given: the % may be the effect or the level left; conditions: time 7 day
[18] = Tmax in rat at 10 mg/kg, po measured after 24 hrs by LC-MS/MS analysis; type: ADME, organism-based; conditions: in vivo
Mus musculus [19] = experiment: Anti-inflammatory activity in PKD1 knockout ADPKD (Pkd1 flox/flox; Ksp-Cre) C57BL/6 mouse model assessed as decrease in Ccl2 level in kidney at 5 mg/kg, SC administered from postnatal day 6 and measured on postnatal day 12 by RT-qPCR analysis; type: functional, organism-based; conditions: time 7.0 day
[20] = Half-life in rat at 10 mg/kg, po measured after 24 hrs by LC-MS/MS analysis; type: ADME, organism-based; conditions: in vivo
[21] = molecular target: T1, E3 ubiquitin-protein ligase RNF126/Serine/threonine-protein kinase TBK1; experiment: Molecular glue activity at RNF126/TBK1 in human A549 cells assessed as induction of TBK1 degradation incubated for 16 hrs by Western blot analysis; type: cell-based
[22] = molecular target: T1, E3 ubiquitin-protein ligase RNF126/Serine/threonine-protein kinase TBK1; experiment: Molecular glue activity at RNF126/TBK1 in HEK293T cells assessed as induction of TBK1 degradation by measuring maximal efficacy at 10 to 1000 nM incubated for 16 hrs by Western blot analysis relative to control; type: cell-based; conditions: dose 10-1000 nM
Target sequence in this assay (Q9BV68 2-311 partner limits assumed, one chain of several): as the sequence (Q9BV68 2-311 partner limits assumed, one chain of several) above

SMILES: COc1ccc(C(=O)/C=C/C(=O)N2CCN(CC3CCN(Cc4cccc(Nc5ncc6ccn(CCCNC(=O)C7CCC7)c6n5)c4)CC3)CC2)cc1
- Activity (Mus musculus [1]): Active
- Vd [2]: 17.3 L/kg
- Emax [3]: 71.9%
- inhibition (MDCK): Time-dependent-effect; Effect Observed Starting On Day 6
- Activity [4]: Active; Significant Reduction In Tbk1 Level Observed
- Activity [5]: inactive
- Activity [6]: Dose-dependent-effect
- DC50 [6]: 351 nM
- Cmax [7]: 1790 nM
- Activity (Mus musculus [8]): Active
- Cmax [9]: 70 nM
- IC50 [10]: 77.4 nM
- inhibition (Mus musculus [11]): Active
- bioavailability [12]: 2.77%
- inhibition (Kidney): Active
- Activity (Mus musculus [13]): Active
- clearance [14]: 44.9 mL/min/kg
- AUC(0-inf) [15]: 0.14 µM·h
- Activity [16]: Active; Maximal Tbk1 Degradation Observed
- Activity (Mus musculus [17]): 14%
- Tmax [18]: 21.6 min
- Activity (Mus musculus [19]): Active
- half-life [20]: 73.2 min
- Activity [21]: Dose-dependent-effect
- DC50 [21]: 360 nM
- Emax [22]: 91.9%
